One test has as its system SARS-CoV-2 USA-WA1/2020. The test is described as follows: microbe, parasite or virus in culture. In kind it is cell-based. The following applies: read-out: SARS-CoV-2 BSL3 EC50.
Another test deals with SARS-CoV-2 replicon. The test is described as follows: microbe, parasite or virus in culture. In kind it is cell-based. The following applies: Severe acute respiratory syndrome coronavirus 2, Huh-7.
The target in test [1] is SARS-CoV-2 Papain-like (PLpro) protease (Severe acute respiratory syndrome coronavirus 2, UniProt P0DTD1). The test can be described thus: SARS-CoV-2 Papain-like (PLpro) protease biochemical enzyme inhibition assay (ubiquitin-fluorophore substrate, Ub-R110). The following applies: Ub-R110 substrate; run in duplicate; read-out: PLpro IC50.
[2] abbreviates: Severe acute respiratory syndrome coronavirus 2, 144 h, Vero 76 cells, SARS-CoV-2 USA-WA1/2020, neutral red, day 6.

The structures appear in SMILES notation. Read-outs that look alike come from different tables or passages of the source.

The EC50 is the concentration at which the effect is half-maximal. For orientation: IC50 means the point on the concentration scale where inhibition reaches its midpoint. With `O=C(NCC#CC(=O)N1CC2CC2C1)C(=O)NCc1ccccc1C(=O)NC1(c2ccc3ccccc3c2)CC1` (stereo not drawn) [Example 527], the concentration giving a half-maximal response (EC50) with SARS-CoV-2 USA-WA1/2020 (setting [2]) and with SARS-CoV-2 replicon was < 1000 nM in each case. Moreover, in test [1], the IC50 is < 100 nM.
As for `N#CCNC(=O)C(=O)NCc1ccc(-c2ccn(C(F)F)n2)cc1C(=O)NC1(c2ccc(F)c3ccccc23)CC1` [Example 125], the 50% effective concentration (EC50) was < 1000 nM in the test on SARS-CoV-2 USA-WA1/2020 (setting [2]) and 1000 to 10000 nM in the test with SARS-CoV-2 replicon. Moreover, the IC50 in test [1] is < 100 nM.
The corresponding values for `COC(=O)/C=C/CCNC(=O)C(=O)NCc1ccccc1C(=O)NC1(c2cccc3ccccc23)CC1` [Example 3] are < 1000 nM, < 1000 nM and < 100 nM.
The corresponding values for `O=C(C#CCNC(=O)C(=O)NCc1ccccc1C(=O)NC1(c2ccc3ccccc3c2)CC1)NC1CC1` [Example 536] are < 1000 nM, < 1000 nM and < 100 nM.
The corresponding values for `COC(=O)/C=C/CNC(=O)C(=O)NCc1ccccc1C(=O)N[C@H](C)c1cccc2ccccc12` [Example 2] are < 1000 nM, < 1000 nM and < 100 nM.
For `O=C(C#CCNC(=O)C(=O)NCc1ccccc1C(=O)NC1(c2ccc3ccccc3c2)CC1)N[C@]12C[C@](C(F)(F)F)(C1)C2` [Example 537], the concentration for a half-maximal effect (EC50) with SARS-CoV-2 USA-WA1/2020 (setting [2]) and in the test on SARS-CoV-2 replicon was < 1000 nM in each case. For the same molecule, the IC50 in test [1] was < 100 nM.
Regarding `C#CCNC(=O)C(=O)NCc1ccc(-c2ccn(C(F)F)n2)cc1C(=O)NC1(c2ccc(F)c3ccccc23)CC1` [Example 126], the EC50 in the test with SARS-CoV-2 USA-WA1/2020 (setting [2]) and in the test with SARS-CoV-2 replicon was < 1000 nM throughout. Also, the IC50 in test [1] is < 100 nM.
On to `O=C(NCC#CC(=O)N1CC(F)(F)C1)C(=O)NCc1ccccc1C(=O)NC1(c2cccc3ccccc23)CC1` [Example 529], for which the concentration giving a half-maximal response (EC50) with SARS-CoV-2 USA-WA1/2020 (setting [2]) and with SARS-CoV-2 replicon was < 1000 nM throughout. For the same molecule, the half-maximal inhibitory concentration (IC50) in test [1] is < 100 nM.
With `O=C(NCC#CC(=O)N1CC2CC2C1)C(=O)NCc1ccccc1C(=O)NC1(c2cccc3ccccc23)CC1` (stereo not drawn) [Example 528], the concentration for a half-maximal effect (EC50) in the test with SARS-CoV-2 USA-WA1/2020 (setting [2]) and in the test on SARS-CoV-2 replicon was < 1000 nM each time. The IC50 in test [1] is < 100 nM.
For the molecule `N#CCNC(=O)C(=O)NCc1ccccc1C(=O)NC1(c2cc(Cl)cc(-c3cccs3)c2)CC1` [Example 457, N1-(2-((1-(3-chloro-5-(thiophen-2-yl)phenyl)cyclopropyl)carbamoyl)benzyl)-N2-(cyanomethyl)oxalamide], the EC50 fell in the range of 1000 to 10000 nM in the test on SARS-CoV-2 USA-WA1/2020 (Severe acute respiratory syndrome coronavirus 2, Vero 76, 144 h) and 1000 to 10000 nM with SARS-CoV-2 replicon. Moreover, the IC50 in test [1] was < 100 nM.
Take `COC(=O)/C=C/CCNC(=O)C(=O)NCc1ccccc1C(=O)N[C@H](C)c1cccc2ccccc12` [Example 1]: the EC50 in the test on SARS-CoV-2 USA-WA1/2020 (setting [2]) and in the test with SARS-CoV-2 replicon was < 1000 nM each time. Also, the concentration for half-maximal inhibition (IC50) in test [1] is < 100 nM.
With `O=C(C#CCNC(=O)C(=O)NCc1ccccc1C(=O)NC1(c2cccc3ccccc23)CC1)NC1CC1` [Example 518], the EC50 in the test on SARS-CoV-2 USA-WA1/2020 (setting [2]) and with SARS-CoV-2 replicon was < 1000 nM each time. The IC50 in test [1] was < 100 nM.
For the molecule `O=C(C#CCNC(=O)C(=O)NCc1ccccc1C(=O)NC1(c2cccc3ccccc23)CC1)N[C@]12C[C@](C(F)(F)F)(C1)C2` [Example 525], the EC50 with SARS-CoV-2 USA-WA1/2020 (setting [2]) was 1000 to 10000 nM; in the test on SARS-CoV-2 replicon, < 1000 nM. Also, the half-maximal inhibitory concentration (IC50) in test [1] was < 100 nM.
In the case of `O=C(NCC#CC(=O)N1CC(F)(F)C1)C(=O)NCc1ccccc1C(=O)NC1(c2ccc3ccccc3c2)CC1` [Example 535], the EC50 is 1000 to 10000 nM in the test on SARS-CoV-2 USA-WA1/2020 (setting [2]) and < 1000 nM with SARS-CoV-2 replicon. Also, the IC50 in test [1] was < 100 nM.
Turning to `O=C(NCC#Cc1cccc(F)n1)C(=O)NCc1ccccc1C(=O)NC1(c2ccc3ccccc3c2)CC1` [Example 196], in the test with SARS-CoV-2 replicon, the EC50 was < 1000 nM. Further, the IC50 in test [1] is < 100 nM.
The matching figures for `N#CCNC(=O)C(=O)NCc1ccccc1C(=O)NC1(c2cccc3c(Br)cccc23)CC1` [Example 310]: < 1000 nM and < 100 nM.
Take `Cc1n[nH]c(C)c1-c1cc(C2(NC(=O)c3ccccc3CNC(=O)C(=O)NCC#N)CC2)c2ccccc2c1` [Example 288]: in the test with SARS-CoV-2 replicon, the EC50 fell in the range of 1000 to 10000 nM. Further, the 50% inhibitory concentration (IC50) in test [1] is < 100 nM.
The matching figures for `C[C@@H](C#Cc1ccc(C#N)cc1OC(F)(F)F)NC(=O)C(=O)NCc1ccccc1C(=O)NC1(c2ccc3nn(C)cc3c2)CC1` [Example 206]: < 1000 nM and < 100 nM.
Turning to `CN1C[C@H](F)CC1COc1ccc(CNC(=O)C(=O)NCC#N)c(C(=O)NC2(c3cc(-c4cnn(C5CC5)c4)cc4ccccc34)CC2)c1` (stereo partly drawn) [Example 322], the EC50 with SARS-CoV-2 replicon is < 1000 nM. For the same molecule, the concentration for half-maximal inhibition (IC50) in test [1] was < 100 nM.
The matching figures for `O=C(NCC#Cc1nccs1)C(=O)NCc1ccccc1C(=O)NC1(c2cnc3ccccc3c2)CC1` [Example 393]: 1000 to 10000 nM and < 100 nM.
Regarding `N#Cc1nc(C#CCNC(=O)C(=O)NCc2ccccc2C(=O)NC2(c3ccc4ccccc4c3)CC2)ccc1Cl` [Example 194], in the test with SARS-CoV-2 replicon, the concentration for a half-maximal effect (EC50) was < 1000 nM. Further, the IC50 in test [1] is < 100 nM.
The corresponding values for `O=C(NCC#Cc1cnc(C2CC2)nc1)C(=O)NCc1ccccc1C(=O)NC1(c2ccc3ccccc3c2)CC1` [Example 180] are 1000 to 10000 nM and 1000 to 10000 nM.
As for `N#CCNC(=O)C(=O)NCc1ccccc1C(=O)NC1(c2cccc3c(C#N)cccc23)CC1` [Example 308], in the test on SARS-CoV-2 replicon, the EC50 was < 1000 nM. Also, the concentration for half-maximal inhibition (IC50) in test [1] is < 100 nM.
The corresponding values for `CC(C)(O)CCc1cc(C2(NC(=O)c3ccccc3CNC(=O)C(=O)NCC#N)CC2)c2ccccc2c1` [Example 424] are 1000 to 10000 nM and < 100 nM.
Consider `N#Cc1ccc(C#CCNC(=O)C(=O)NCc2ccccc2C(=O)NC2(c3ccc4ccccc4c3)CC2)cc1` [Example 171], for which the concentration for a half-maximal effect (EC50) in the test on SARS-CoV-2 replicon is < 1000 nM. Further, the half-maximal inhibitory concentration (IC50) in test [1] is < 100 nM.
Consider `CC(C)(O)c1cccc(-c2cc(C3(NC(=O)c4ccccc4CNC(=O)C(=O)NCC#N)CC3)c3ccccc3c2)n1` [Example 283], for which, in the test with SARS-CoV-2 replicon, the EC50 is < 1000 nM. The IC50 in test [1] was < 100 nM.
Regarding `COC(=O)C#CCCNC(=O)C(=O)NCc1ccccc1C(=O)N[C@H](C)c1cccc2ccccc12` [Example 8], in the test with SARS-CoV-2 replicon, the EC50 is < 1000 nM. For the same molecule, the concentration for half-maximal inhibition (IC50) in test [1] was < 100 nM.
As for `O=C(NCC#Cc1nccs1)C(=O)NCc1ccccc1C(=O)NC1(c2cc(F)cc(-c3cnn(C4COC4)c3)c2)CC1` [Example 253], the EC50 in the test on SARS-CoV-2 replicon is < 1000 nM. Moreover, the concentration for half-maximal inhibition (IC50) in test [1] is < 100 nM.
The corresponding values for `C#CCNC(=O)C(=O)NCc1ccccc1C(=O)NC1(c2cc(F)cc(-c3cn(C)nc3C)c2)CC1` [Example 234] are < 1000 nM and < 100 nM.
Regarding `C[C@@H](C#Cc1nccs1)NC(=O)C(=O)NCc1ccccc1C(=O)N[C@H](C)c1cc(F)cc(-c2cnn(C(F)F)c2)c1` [Example 496], the EC50 in the test with SARS-CoV-2 replicon is < 1000 nM. Moreover, the concentration for half-maximal inhibition (IC50) in test [1] was < 100 nM.
The corresponding values for `COc1ccc2cccc(C3(NC(=O)c4ccccc4CNC(=O)C(=O)NCC#N)CC3)c2c1` [Example 348] are 1000 to 10000 nM and < 100 nM.
The matching figures for `Cc1nn(C)cc1-c1cc(Cl)cc(C2(NC(=O)c3ccccc3CNC(=O)C(=O)NCC#Cc3nccs3)CC2)c1` [Example 486]: < 1000 nM and < 100 nM.
For the molecule `C=CC(=O)NNC(=O)C(=O)NCc1ccccc1C(=O)N[C@H](C)c1cccc2ccccc12` [Example 22], the EC50 with SARS-CoV-2 replicon is > 10000 nM. The IC50 in test [1] fell in the range of 100 to 1000 nM.
The corresponding values for `N#CCNC(=O)C(=O)NCc1ccccc1C(=O)NC1(c2cc(-c3cccs3)cc(Cl)c2F)CC1` [Example 304] are 1000 to 10000 nM and < 100 nM.
Take `COC(=O)/C(C)=C/CNC(=O)C(=O)NCc1ccccc1C(=O)N[C@H](C)c1cccc2ccccc12` [Example 24]: the EC50 with SARS-CoV-2 replicon is < 1000 nM. The concentration for half-maximal inhibition (IC50) in test [1] is < 100 nM.

(Values after US20240327334A1, “Covalent Inhibitors As Antiviral Agents” (Enanta Pharmaceuticals, Inc., priority 2022, published 2024).)
